The values that follow come from patent US10450549B2, “Aryloxyphenoxypropionate tolerance in turfrgass species and use of AAD1 as a selectable marker” (Dow AgroSciences, LLC, priority 2004, dated 2019).

For test [1], the system named is Arabidopsis thaliana var. Columbia. Description: Arabidopsis plate test bioassay for herbicide degradation. The test is classed as in vivo. The note with it: for IC50: 168 h.
Test [2] has as its target T1, AAD1 (v1) (Sphingobium herbicidovorans, UniProt Q8KSC8).
T1 construct: made in house; host or cells: E. coli BL-21 Star (DE3), plasmid pDAB3203
Description: Colorimetric phenol detection assay of AAD1 (v1) activity (purified enzyme or E. coli extract). It is filed as biochemical. The note with it: for A510, AAD1 / A510, AAD1 (10x): substrate 1 mM; for A510, AAD1: 1 μg purified AAD1 (v1) per 0.16 ml assay; for A510, AAD1 (10x): 10 μg purified AAD1 (v1) per 0.16 ml assay.

The test system of test [3] is Wildtype Arabidopsis. Description: T1 Arabidopsis spray test, % visual injury 2 WAT: wildtype control. It is filed as in vivo, Arabidopsis thaliana.
Source text: (§1) Random individual T1 plants selected for glufosinate resistance above were confirmed for expression of the PAT protein using a PAT ELISA kit (Part no. 7000045, Strategic Diagnostics, Inc., Newark, Del.) to non-destructively confirm fidelity of selection process (manufacturer's protocol). Plants were then randomly assigned to various rates of phenoxy herbicides (dichlorprop or 2,4-D). […] Elevated rates were applied in subsequent trials (50, 200, 800, or 3200 g ae/ha).
(§2) All auxin herbicide applications were made using the DeVilbiss sprayer as described above to apply 703 L/ha spray volume (0.4 ml solution/3-inch pot) or applied by track sprayer in a 187 L/ha spray volume. […] Dichlorprop used was technical grade (Sigma, St. Louis, Mo.) dissolved in DMSO and diluted in water (<1% DMSO final concentration). As herbicide rates increased beyond 800 g ae/ha, the pH of the spray solution became exceedingly acidic, burning the leaves of young, tender Arabidopsis plants and complicating evaluation of the primary effects of the herbicides. It became standard practice to apply these high rates of phenoxy herbicides in 200 mM Tris buffer (pH 9.0) to a final pH of ˜7-8.
(§3) Although Arabidopsis, being a dicot, is not an optimal system for testing ACCase-inhibiting AOPP grass herbicides, AAD1 (v3)-transformed T1 plants were subjected to elevated rates (400-1600 g ae/ha) of RS-haloxyfop acid (internally synthesized) that do cause growth abnormalities and death of wildtype Arabidopsis using the DeVilbiss sprayer as described above. Injury ratings were taken 7 and 14 days after treatment. Likewise, T1 individuals were treated with the pyridyloxyacetate auxin herbicide, fluroxypyr.
(§4) Table 16. […] Response is presented in terms of % visual injury 2 WAT. […] Since each T1 is an independent transformation event, one can expect significant variation of individual T1 responses within a given rate. An arithmetic mean and standard deviation is presented for each treatment. The range in individual response is also indicated in the last column for each rate and transformation. PAT/Cry1F-transformed Arabidopsis served as an auxin-sensitive transformed control. Wildtype Arabidopsis is untransformed.
(§5) Table 17. T1 Arabidopsis response to a range of dichlroprop rates applied postemergence. Response is presented in terms of % visual injury 2 WAT. […] Since each T1 is an independent transformation event, one can expect significant variation of individual T1 responses within a given rate. An arithmetic mean and standard deviation is presented for each treatment. The range in individual response is also indicated in the last column for each rate and transformation. PAT/Cry1F-transformed Arabidopsis served as an auxin-sensitive transformed control. Wildtype Arabidopsis is untransformed.
as §5, with “18.” for “17.”, “haloxyfop” for “dichlroprop”, “postemergence at artificially high rates attempting to show tolerance of the dicot Arabidopsis to the graminicide.” for “postemergence.”

The test system of test [4] is PAT/Cry1F-transformed Arabidopsis. Description: T1 Arabidopsis spray test, % visual injury 2 WAT: PAT/Cry1F transformed control. It is filed as in vivo, Arabidopsis thaliana. The note with it: for % Injury 20-40% / % Injury <20% / % Injury >40%: number of individuals.
Source text: as §1, §2, §3, §4, §5
as §5, with “18.” for “17.”, “haloxyfop” for “dichlroprop”, “postemergence at artificially high rates attempting to show tolerance of the dicot Arabidopsis to the graminicide.” for “postemergence.”

The mark [5] stands for this setting: Arabidopsis thaliana, read-out: GR50, Chemical + AAD1 v1.
Setting [6] is: PAT/Cry1F (transformed control), 50 g ae/ha.
Where [7] appears, read: PAT/Cry1F (transformed control), 200 g ae/ha.
[8] abbreviates: PAT/Cry1F (transformed control), 800 g ae/ha.
Where [9] appears, read: number of individuals; 100 g ae/ha; Wildtype; 2 WAT.
The mark [10] stands for this setting: number of individuals; 200 g ae/ha; Wildtype; 2 WAT.
Where [11] appears, read: number of individuals; 400 g ae/ha; Wildtype; 2 WAT.
The mark [12] stands for this setting: number of individuals; 800 g ae/ha; Wildtype; 2 WAT.
The mark [13] stands for this setting: number of individuals; 1600 g ae/ha; Wildtype; 2 WAT.

Like-named read-outs stand apart in the source and are kept apart here. Where only a bound is given, the exact number is not on record here.

For orientation: kcat means the maximal rate divided by the concentration of active sites.

T1 sequence (Q8KSC8 whole entry): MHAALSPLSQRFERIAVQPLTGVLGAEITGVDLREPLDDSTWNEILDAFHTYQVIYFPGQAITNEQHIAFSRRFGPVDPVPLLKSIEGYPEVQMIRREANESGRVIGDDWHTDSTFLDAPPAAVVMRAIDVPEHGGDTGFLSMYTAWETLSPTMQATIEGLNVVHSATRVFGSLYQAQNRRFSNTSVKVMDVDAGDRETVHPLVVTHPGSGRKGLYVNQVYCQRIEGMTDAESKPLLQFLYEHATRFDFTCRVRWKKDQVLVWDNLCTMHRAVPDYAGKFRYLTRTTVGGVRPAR

With `Nc1c(Cl)c(F)nc(OCC(=O)O)c1Cl` [Fluroxypyr], the IC50 in test [1] (setting [5]) was 1.82 µM; in test [1] (Arabidopsis thaliana, root length, 7 days, read-out: GR50, Chemical alone), 2.2 µM; in test [1] (Escherichia coli, in Arabidopsis thaliana, cell lysate of E. coli pET vector without gene insert, read-out: GR50, Chemical + Blank Vector), 2.25 µM. For the same molecule, the GR50 ratio in test [1] (enzyme-expressing lysate vs blank vector, ≥ 2 = threshold for activity loss) is recorded as less than 1.

For the molecule `O=C(O)COc1ccc(Cl)cc1Cl` [2,4-D, 2,4-dichlorophenoxyacetic acid], in test [2] (0.5 mM substrate, 4 μl extract, 15 min), the “activity of AAD1 (v1) E. coli extract on substrate” value is reported as “cleaved”. The “Vmax (A510 units)” value in test [2] (AAD1 (v1) (pDAB3203), MOPS pH 6.75) stood at 0.11 A510 units. Besides, the “A510, AAD1” value in test [2] (Table 3, 15 min) was determined as 0.034. The “A510, AAD1 (10x)” value in test [2] (Table 3, 15 min) worked out at 0.383. Also, the A510 in test [2] (Table 8, 1 mM, 27 μg crude recombinant AAD1 (v1) extract from E. coli) amounted to 0.177. Further, the “% 2,4-D” value in test [2] (Table 8, relative to 2,4-D, crude AAD1 (v1) extract) is on record as 100%. Moreover, the “apparent Vmax, AAD1 (v1)” value in test [2] (partially purified enzyme) is 0.11 A510 units. Moreover, the kcat in test [2] (purified AAD1 (v1)) stood at 0.045 s⁻¹. In test [2] (purified AAD1 (v1), Michaelis-Menten fit), the “Vmax ± SE” value is reported as 0.57 ± 0.00 μmol min^−1 mg^−1 AAD1. Besides, the IC50 in test [1] (setting [5]) came out at 0.267 µM; in test [1] (Arabidopsis thaliana, read-out: GR50, Chemical alone) it was 0.022 µM; in test [1] (Escherichia coli, in Arabidopsis thaliana, read-out: GR50, Chemical + Blank Vector) it was 0.017 µM. In test [1] (unpurified recombinant AAD1 (v1) extract), the “herbicidal activity after AAD1 (v1) treatment, Arabidopsis plate assay” value is recorded as “almost complete loss”. Besides, the “% Injury Ave” value came out at 90.0% in test [3] (Wildtype; 50 g ae/ha; 2 WAT); 95.1% in test [3] (Wildtype; 200 g ae/ha; 2 WAT); 100.0% in test [3] (Wildtype; 800 g ae/ha; 2 WAT); 90.7% in test [4] (setting [6]); 97.2% in test [4] (setting [7]); 100.0% in test [4] (setting [8]). Further, the “individuals with 20-40% injury” value in test [3] (Wildtype; 50 g ae/ha; 2 WAT), in test [3] (Wildtype; 200 g ae/ha; 2 WAT), in test [3] (Wildtype; 800 g ae/ha; 2 WAT), in test [4] (setting [6]), in test [4] (setting [7]) and in test [4] (setting [8]) was 0 in each case. The “individuals with <20% injury” value in test [3] (Wildtype; 50 g ae/ha; 2 WAT), in test [3] (Wildtype; 200 g ae/ha; 2 WAT), in test [3] (Wildtype; 800 g ae/ha; 2 WAT), in test [4] (setting [6]), in test [4] (setting [7]) and in test [4] (setting [8]) was 0 throughout. In addition, the “individuals with >40% injury” value in test [3] (Wildtype; 50 g ae/ha; 2 WAT), in test [3] (Wildtype; 200 g ae/ha; 2 WAT), in test [3] (Wildtype; 800 g ae/ha; 2 WAT), in test [4] (setting [6]), in test [4] (setting [7]) and in test [4] (setting [8]) was 15 each time. Moreover, in test [3] (postemergence spray), the “GR99 for Arabidopsis” value was “about 50 g ae/ha”.

`CC(Oc1ccc(Oc2ncc(C(F)(F)F)cc2Cl)cc1)C(=O)O` (centres unmarked) [haloxyfop]: in test [2] (Table 4), the “A510, AAD1” value turned out to be 0.172. Also, in test [2] (Table 4), the “A510, AAD1 (10x)” value is given as 1.63. The “% Injury Ave” value in test [3] (100 g ae/ha; Wildtype; 2 WAT) worked out at 0.0%; in test [3] (200 g ae/ha; Wildtype; 2 WAT), 0.0%; in test [3] (400 g ae/ha; Wildtype; 2 WAT), 20.0%; in test [3] (800 g ae/ha; Wildtype; 2 WAT), 73.3%; in test [3] (1600 g ae/ha; Wildtype; 2 WAT) it was 93.3%; in test [4] (100 g ae/ha, PAT/Cry1F), 0.0%. In addition, the “% Injury Ave” value in test [4] (200 g ae/ha, PAT/Cry1F) amounted to 10.0%; in test [4] (400 g ae/ha, PAT/Cry1F) it was 27.5%; in test [4] (800 g ae/ha, PAT/Cry1F) it was 78.8%; in test [4] (1600 g ae/ha, PAT/Cry1F) it was 47.5%. Also, the “% Injury Range” value in test [3] (100 g ae/ha; Wildtype; 2 WAT) was 0%; in test [3] (200 g ae/ha; Wildtype; 2 WAT), 0%; in test [3] (400 g ae/ha; Wildtype; 2 WAT) it was 20%; in test [3] (800 g ae/ha; Wildtype; 2 WAT), 70-85%; in test [3] (1600 g ae/ha; Wildtype; 2 WAT) it was 80-100%; in test [4] (100 g ae/ha, PAT/Cry1F) it was 0%. Also, the “% Injury Range” value in test [4] (200 g ae/ha, PAT/Cry1F) is 10%; in test [4] (400 g ae/ha, PAT/Cry1F), 20-30%; in test [4] (800 g ae/ha, PAT/Cry1F), 70-85%; in test [4] (1600 g ae/ha, PAT/Cry1F), 80-100%. Moreover, the “% Injury 20-40%” value was 0 in test [3] (setting [9]); 0 in test [3] (setting [10]); 3 in test [3] (setting [11]); 0 in test [3] (setting [12]); 0 in test [3] (setting [13]); 0 in test [4] (100 g ae/ha, PAT/Cry1F). The “% Injury 20-40%” value in test [4] (200 g ae/ha, PAT/Cry1F) is given as 0; in test [4] (400 g ae/ha, PAT/Cry1F), 4; in test [4] (800 g ae/ha, PAT/Cry1F), 0; in test [4] (1600 g ae/ha, PAT/Cry1F) it was 0. The “% Injury <20%” value worked out at 3 in test [3] (setting [9]); 3 in test [3] (setting [10]); 0 in test [3] (setting [11]); 0 in test [3] (setting [12]); 0 in test [3] (setting [13]); 4 in test [4] (100 g ae/ha, PAT/Cry1F). Moreover, the “% Injury <20%” value in test [4] (200 g ae/ha, PAT/Cry1F) is reported as 4; in test [4] (400 g ae/ha, PAT/Cry1F), 0; in test [4] (800 g ae/ha, PAT/Cry1F), 0; in test [4] (1600 g ae/ha, PAT/Cry1F) it was 0. The “% Injury >40%” value in test [3] (setting [9]) is recorded as 0; in test [3] (setting [10]), 0; in test [3] (setting [11]), 0; in test [3] (setting [12]) it was 3; in test [3] (setting [13]), 3; in test [4] (100 g ae/ha, PAT/Cry1F), 0. For the same molecule, the “% Injury >40%” value in test [4] (200 g ae/ha, PAT/Cry1F) turned out to be 0; in test [4] (400 g ae/ha, PAT/Cry1F), 0; in test [4] (800 g ae/ha, PAT/Cry1F), 4; in test [4] (1600 g ae/ha, PAT/Cry1F), 4.

Take `C[C@@H](Oc1ccc(Oc2cnc3cc(Cl)ccc3n2)cc1)C(=O)O` [quizalofop]: the “activity relative to the dichlorprop rate” value in test [2] (purified AAD1 (v1), 1 mM substrate) came out at 76%.
